Source: ChEMBL document CHEMBL4261578, “Structure-Function Analysis of Immune Checkpoint Receptors to Guide Emerging Anticancer Immunotherapy” (J Med Chem, 2018)
Numbered stars: 1 amine (or outer) side, 2 acyl side, 3 side chain; on linkers, the order of the positions; unused ones are H or OH. Bridge positions count the residues as written; N and C are the ends. Square brackets hold non-standard residues; d marks the D form. Peptide text beside a SMILES is read from it. ξ: configuration not given here. X1 = CC(C)C[C@H](N[*:1])C(=O)NC(=O)[*:2]; NMeNle = CCCC[C@H](NC)C(=O)O; NMeA = CN[C@@H](C)C(=O)O; ξP = O=C(O)C1CCCN1; ξC = NC(CS)C(=O)O; Sar = CNCC(=O)O

Molecular target: Programmed cell death 1 ligand 1 (Homo sapiens, UniProt Q9NZQ7)
Sequence (Q9NZQ7 whole entry): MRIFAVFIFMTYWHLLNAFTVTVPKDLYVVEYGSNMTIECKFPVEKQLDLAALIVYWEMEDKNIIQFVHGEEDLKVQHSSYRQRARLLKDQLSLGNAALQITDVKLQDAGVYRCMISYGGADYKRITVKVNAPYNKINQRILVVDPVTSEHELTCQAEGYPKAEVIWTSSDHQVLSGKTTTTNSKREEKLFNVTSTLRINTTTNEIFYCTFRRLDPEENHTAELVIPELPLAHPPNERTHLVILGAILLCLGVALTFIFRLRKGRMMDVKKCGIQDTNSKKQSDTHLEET
Test: Inhibition of PD-L1 (unknown origin)

CCCC[C@H]1C(=O)N(C)[C@@H](CCCC)C(=O)N[C@@H](CCCNC(=N)N)C(=O)NC(C(=O)NCC(N)=O)CSCC(=O)N[C@@H](Cc2ccccc2)C(=O)N(C)[C@@H](C)C(=O)N[C@@H](CC(N)=O)C(=O)N2CCCC2C(=O)N[C@@H](CC(C)C)C(=O)NC(=O)N(C)CC(=O)NCC(=O)N[C@@H](Cc2c[nH]c3ccccc23)C(=O)N[C@@H](Cc2c[nH]c3ccccc23)C(=O)N1C (stereo partly specified) ({CH2CO}-F[NMeA]N[ξP][X1][Sar]GWW[NMeNle][NMeNle]R[ξC]G-NH2; thioether N-13)
IC50: 5.2 nM
